In US6946558B2 (CJ Corp., priority 2001, dated 2005):

Columns and labels:
cyclooxygenase-1 = target: T1, cyclooxygenase-1 (Homo sapiens, UniProt P23219); test: Cyclooxygenase-1 inhibition in U-937 cells (PGE2 quantitation after arachidonic acid); assay type: cell-based; conditions: for Inhibitory effects of cyclooxygenase (COX): COX-1 (U-937): U-937 cells; for inhibition effect against cyclooxygenase-1 compared with standard substance SC-58635: in words, compared with SC-58635
T1 construct: endogenous in cells; host or cells: U-937 (Korean cell line bank)
T1 sequence (P23219 24-599): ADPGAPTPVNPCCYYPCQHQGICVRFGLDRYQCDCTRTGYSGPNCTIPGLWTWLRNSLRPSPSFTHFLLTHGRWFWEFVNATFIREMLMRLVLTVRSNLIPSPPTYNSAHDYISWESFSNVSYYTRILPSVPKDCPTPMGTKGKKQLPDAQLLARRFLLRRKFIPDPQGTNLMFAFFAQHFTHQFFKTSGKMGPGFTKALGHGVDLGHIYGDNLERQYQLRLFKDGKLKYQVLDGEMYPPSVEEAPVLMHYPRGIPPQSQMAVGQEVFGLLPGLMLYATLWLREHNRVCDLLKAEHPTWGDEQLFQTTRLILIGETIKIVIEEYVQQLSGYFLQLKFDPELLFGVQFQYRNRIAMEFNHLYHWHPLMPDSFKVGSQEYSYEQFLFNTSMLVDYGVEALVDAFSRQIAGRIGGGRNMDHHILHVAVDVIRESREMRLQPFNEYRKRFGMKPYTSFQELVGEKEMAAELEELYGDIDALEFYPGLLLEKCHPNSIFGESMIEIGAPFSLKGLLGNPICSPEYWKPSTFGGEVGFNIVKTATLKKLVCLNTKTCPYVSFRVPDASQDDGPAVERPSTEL
Procedure: (§1) In order to investigate pharmacologically the selective inhibition activity against cyclooxygenase-2 enzyme, the inhibitive effects against cyclooxygenase-1 and cyclooxygenase-2 were measured by two methods as follows.
Then, the pellet was diluted with 1×HBSS (Hank's balanced salt solutin) at the concentration of 1×10^6 cells/ml, and 1 ml of them was transferred into each of 12-well plates, and then dissolved with DMSO. 5 μl of the diluted sample solution and 5 μl of DMSO vehicle were added therein and mixed, and the mixture was cultured at 37° C. in CO2 incubator for 15 minutes. Arachidonic acid as a substrate was dissolved in ethanol to prepare a stock solution with a concentration of 10 mM, followed by diluting with 1×HBSS to prepare the solution of 1 mM. 10 μl of 1 mM Arachidonic acid solution was added to each of the treated wells and the mixture was cultured at 37° C. in CO2 incubator for 30 minutes. The cell solution of each well was collected in the centrifuge tube and centrifuged at 4° C., for 5 minutes at 10,000 rpm. As PGE2 existed in the supernatant separated from collected cell, the concentration of PGE2 was quantitated by using monoclonal kit from Cayman Chemicals, and the concentration of samples and vehicle were compared to estimate the inhibition ratio (%) of each compound against cyclooxygenase-1. Ultimately, the inhibition effect against the cyclooxygenase-1 enzyme was obtained from the result.

cyclooxygenase-2 = target: T2, cyclooxygenase-2 (Mus musculus, UniProt Q05769); test: Cyclooxygenase-2 inhibition in Raw 264.7 cells (interferon γ/LPS induced, PGE2 EIA); assay type: cell-based; conditions: for Inhibitory effects of cyclooxygenase (COX): COX-2 (Raw 264.7): Raw 264.7 cells; for selectivity of cyclooxygenase-2 compared with standard substance: COX-2 versus COX-1, compared with SC-58635
T2 construct: endogenous in cells; host or cells: Raw 264.7 (Korean cell line bank), induced with interferon γ and LPS
T2 sequence (Q05769 18-604): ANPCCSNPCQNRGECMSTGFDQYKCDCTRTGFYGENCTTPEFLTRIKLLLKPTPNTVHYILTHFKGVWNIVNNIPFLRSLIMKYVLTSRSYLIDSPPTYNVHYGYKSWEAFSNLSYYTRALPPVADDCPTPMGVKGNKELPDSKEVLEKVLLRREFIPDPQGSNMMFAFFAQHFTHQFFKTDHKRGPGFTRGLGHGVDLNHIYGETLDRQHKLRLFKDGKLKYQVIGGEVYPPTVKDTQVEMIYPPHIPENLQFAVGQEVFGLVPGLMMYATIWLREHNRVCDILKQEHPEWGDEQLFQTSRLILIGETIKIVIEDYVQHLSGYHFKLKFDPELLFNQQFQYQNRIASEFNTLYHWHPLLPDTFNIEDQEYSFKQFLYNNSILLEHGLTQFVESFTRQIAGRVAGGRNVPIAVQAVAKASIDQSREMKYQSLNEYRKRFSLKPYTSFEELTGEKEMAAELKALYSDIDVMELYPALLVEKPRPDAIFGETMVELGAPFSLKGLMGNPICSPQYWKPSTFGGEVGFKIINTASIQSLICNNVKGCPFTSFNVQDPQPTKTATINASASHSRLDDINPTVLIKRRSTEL
Procedure: as §1
And then, each samples were replaced with new media and cultured for 30 minutes. In addition, the samples were treated with 100 units/ml of interferon γ and 100 ng/ml of lipopolysaccharide (LPS), and cultured for 18 hours. Then, the media was transferred to other tubes and the PGE 2 was quantitated by using EIA kit from Cayman Chemicals.

| SMILES | Inhibitory effects of cyclooxygenase (COX): COX-1 (U-937) (cyclooxygenase-1; 1 μM) | Inhibitory effects of cyclooxygenase (COX): COX-1 (U-937) (cyclooxygenase-1; 3 μM) | Inhibitory effects of cyclooxygenase (COX): COX-1 (U-937) (cyclooxygenase-1; 10 μM) | Inhibitory effects of cyclooxygenase (COX): COX-2 (Raw 264.7) (cyclooxygenase-2; 30 nM) | Inhibitory effects of cyclooxygenase (COX): COX-2 (Raw 264.7) (cyclooxygenase-2; 100 nM) | Inhibitory effects of cyclooxygenase (COX): COX-2 (Raw 264.7) (cyclooxygenase-2; 300 nM) | selectivity of cyclooxygenase-2 compared with standard substance (cyclooxygenase-2; in words) | inhibition effect against cyclooxygenase-1 compared with standard substance SC-58635 (cyclooxygenase-1) | inhibition effect against cyclooxygenase-2 compared with standard substance SC-58635 (cyclooxygenase-2; in words, low concentration, same condition as SC-58635) |
| --- | --- | --- | --- | --- | --- | --- | --- | --- | --- |
| CC(C)Oc1cccnc1-c1ccc(S(C)(=O)=O)nc1 [Example 1, 3-isopropyloxy-6′-methylsulfonyl-2,3′-bipyridinyl] | 0.2 % inhibition | 7.5 % inhibition | 11.0 % inhibition | 10.2 % inhibition | 14.2 % inhibition | 15.2 % inhibition | hardly different | much lower level than a comparative substance | – |
| CS(=O)(=O)c1ccc(-c2ncccc2OC2CCCC2)cn1 [Example 2, 3-cyclopentyloxy-6′-methylsulfonyl-2,3′-bipyridinyl] | 12.7 % inhibition | 14.3 % inhibition | 21.0 % inhibition | 40.3 % inhibition | 53.2 % inhibition | 63.5 % inhibition | better than any other standard substances | much lower level than standard substance | more excellent in low concentration than standard substance |
| CS(=O)(=O)c1ccc(-c2ncccc2OC2CCCCC2)cn1 [Example 3, 3-cyclohexyloxy-6′-methylsulfonyl-2,3′-bipyridinyl] | 11.2 % inhibition | 12.5 % inhibition | 14.0 % inhibition | 23.5 % inhibition | 30.2 % inhibition | 42.2 % inhibition | – | – | – |

More lines, main results first:

| Inhibitory effects of cyclooxygenase (COX): COX-1 (U-937) (cyclooxygenase-1; 1 μM) | Inhibitory effects of cyclooxygenase (COX): COX-1 (U-937) (cyclooxygenase-1; 3 μM) | Inhibitory effects of cyclooxygenase (COX): COX-1 (U-937) (cyclooxygenase-1; 10 μM) | Inhibitory effects of cyclooxygenase (COX): COX-2 (Raw 264.7) (cyclooxygenase-2; 30 nM) | Inhibitory effects of cyclooxygenase (COX): COX-2 (Raw 264.7) (cyclooxygenase-2; 100 nM) | Inhibitory effects of cyclooxygenase (COX): COX-2 (Raw 264.7) (cyclooxygenase-2; 300 nM) | selectivity of cyclooxygenase-2 compared with standard substance (cyclooxygenase-2; in words) | SMILES | inhibition effect against cyclooxygenase-1 compared with standard substance SC-58635 (cyclooxygenase-1) | inhibition effect against cyclooxygenase-2 compared with standard substance SC-58635 (cyclooxygenase-2; in words, low concentration, same condition as SC-58635) |
| --- | --- | --- | --- | --- | --- | --- | --- | --- | --- |
| 12.2 % inhibition | 15.6 % inhibition | 17.0 % inhibition | 15.8 % inhibition | 28.5 % inhibition | 40.8 % inhibition | – | CC(C)=CCOc1cccnc1-c1ccc(S(C)(=O)=O)nc1 [Example 4, 6′-methylsulfonyl-3-(3-methyl-2-butenyloxy)-2,3′-bipyridinyl] | – | – |
| 13.5 % inhibition | 16.2 % inhibition | 18.9 % inhibition | 10.3 % inhibition | 11.01 % inhibition | 20.1 % inhibition | hardly different | C[C@H](CO)COc1cccnc1-c1ccc(S(C)(=O)=O)nc1 [Example 5, (R)-3-(6′-methylsulfonyl-2,3′-bipyridine-3-yloxy)-2-methyl-1-propanol] | much lower level than a comparative substance | – |
| 14.3 % inhibition | 17.2 % inhibition | 24.5 % inhibition | 9.3 % inhibition | 12.0 % inhibition | 21.0 % inhibition | hardly different | C[C@@H](CO)COc1cccnc1-c1ccc(S(C)(=O)=O)nc1 [Example 6, (S)-3-(6′-methylsulfonyl-2,3′-bipyridine-3-yloxy)-2-methyl-1-propanol] | much lower level than a comparative substance | – |
